In PubChem BioAssay AID467 (The Scripps Research Institute Molecular Screening Center, 2006):
Calls of active or inactive are those of the source. No rule for the calls is given here.

System: parental cell line counter screen, S1P1 agonist assay readout
Assay: signal in parental cells, counter-screen for S1P1 agonist project (AID 467);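 also: agonist potency measured against forskolin stimulation plus an EC20 level of SEW2871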

| SMILES | EC50 |
| --- | --- |
| CC1(C)CC(=O)C(C=Nc2ccc3[nH]ncc3c2)=C(O)C1 | > 30 µM (inactive) |
| Cc1nn(C(=O)c2cccs2)c(N)c1-c1ccccc1 | > 30 µM (inactive) |
| CN(CC1CCCO1)S(=O)(=O)c1ccc(C(=O)Nc2nc(-c3ccccn3)cs2)cc1 (stereo unspecified) | > 30 µM (inactive) |
| Oc1c(C(c2ccco2)N2CCN(C(c3ccccc3)c3ccccc3)CC2)sc2ncnn12 (stereo unspecified) | 39.5 µM (inactive) |
| COC(=O)C1=CN(CCCN2CCCC2=O)C=C(C(=O)OC)C1c1ccccc1C(F)(F)F | > 95.1 µM (inactive) |
| CCOc1ccc(-c2nc(-c3ccc(OC)cc3)no2)cc1OCC | > 95.1 µM (inactive) |
| Cc1cccc(OCCCCc2c(C)n[nH]c2C)c1 | > 30 µM (inactive) |
| CCN=c1sc(C(=O)NCCc2ccccc2)cc(=O)n1CC | 53.2 µM (inactive) |
| Brc1ccc2ncnc(Nc3ccc(N4CCOCC4)cc3)c2c1 | 46.6 µM (inactive) |
| O=C(CSc1ncnc2c1oc1ccccc12)N1CCCc2ccccc21 | > 10 µM (inactive) |
| CC(=O)Nc1ccc(S(=O)(=O)N2CCN(CCCOc3cc(C)ccc3C)CC2)cc1 | > 30 µM (inactive) |
| Cc1nc2ccc3nc(NC(=O)C4COc5ccccc5O4)sc3c2s1 (stereo unspecified) | > 95.1 µM (inactive) |
| O=C(Cc1c[nH]c2ccccc12)N1CCc2ccccc21 | > 95.1 µM (inactive) |
| CCN(C(=O)C1CCCCC1)c1nnc(-c2cccnc2)s1 | > 95.1 µM (inactive) |
| COC(=O)c1ccc2c(=O)n(C3CCCCC3)c(SCC#N)nc2c1 | > 95.1 µM (inactive) |
| Cn1ncnc2c(=O)n(C)c(=O)nc1-2 | 1.8 µM |
| CCOC(=O)CN1C(=O)C(C)(C)Oc2ccc(C(=O)Nc3ccccc3OC)cc21 | > 95.1 µM (inactive) |
| CCCOc1ccc(S(=O)(=O)NCc2ccc(OC)cc2)cc1 | > 30 µM (inactive) |
| Cc1csc(NC(=O)C(Cc2ccccc2)n2cccc2)n1 (stereo unspecified) | > 30 µM (inactive) |
| CCOC(=O)CN(C(=O)CSc1nnc(-c2cccc(OC)c2)o1)c1ccc(F)cc1 | > 95.1 µM (inactive) |
| Cc1ccccc1-c1noc(-c2ccc(O)cc2)n1 | 25 µM (inactive) |
| Cc1ccc(-c2n[nH]c(=S)n2C)cc1 | > 95.1 µM (inactive) |
| Cc1cc(C)cc(-c2nc(-c3ccncc3)no2)c1 | > 95.1 µM (inactive) |
| Fc1ccc2[nH]c3c(N4CCSCC4)ncnc3c2c1 | 11 µM (inactive) |
| O=C(c1cc(-c2ccco2)on1)N1CCN(C(c2ccccc2)c2ccccc2)CC1 | > 95.1 µM (inactive) |
| CCOC(=O)C1CCN(c2ncnc3c2oc2ccccc23)CC1 | 45.1 µM (inactive) |

| SMILES | EC50 |
| --- | --- |
| COc1cccc(-c2nnc3sc(C4CCCCC4)nn23)c1 | 44.2 µM (inactive) |
| Cc1cc(N2CCN(c3nc4ccccc4s3)CC2)n2ncnc2n1 | > 95.1 µM (inactive) |
| O=C(C1CCC1)N1CCc2cc(S(=O)(=O)Nc3ccc4c(c3)OCCO4)ccc21 | > 95.1 µM (inactive) |
| COc1ccccc1-n1nnnc1S(=O)(=O)Cc1ccc(Cl)cc1 | 3.05 µM |
| Cc1cccc(N2CCN(C(=O)C3CCCN(S(=O)(=O)c4cccc5cccnc45)C3)CC2)c1C (stereo unspecified) | 28.7 µM (inactive) |
| Cc1cccc(-c2nc(CSCC(=O)N3CCN(c4ccccn4)CC3)c(C)o2)c1 | 31 µM (inactive) |
| Cc1ccc2nc(NC(=O)CSc3nc4c(c(=O)n3C)SC(C)C4)sc2c1 (stereo unspecified) | > 95.1 µM (inactive) |
| CCOc1ccc(-c2nnc(-c3ccco3)o2)cc1OCC | > 95.1 µM (inactive) |
| Cc1nn(Cc2ccc(Cl)cc2)c(C)c1NC(=O)c1cc(-c2ccco2)on1 | 85.2 µM (inactive) |
| Oc1ccc(N2CCN(c3ncnc4sc5c(c34)CCC5)CC2)cc1 | > 95.1 µM (inactive) |
| Cc1sc2ncnc(Sc3nnnn3-c3ccccc3)c2c1C | > 30 µM (inactive) |
| O=C(CSc1nnc(Cn2nnc3ccccc32)o1)N(Cc1ccc(F)cc1)c1ccccc1 | 30.6 µM (inactive) |
| CC(C)(CC(=O)N1CCN(c2ccc(Cl)cc2)CC1)CC1=NS(=O)(=O)c2ccccc2N1 | 19.9 µM (inactive) |
| CCCc1ccc(Oc2cn[nH]c2-c2ccc(O)c(C)c2O)cc1 | > 10 µM (inactive) |
| CC(C)(C)NC(=O)CSc1ncnc2c1nnn2Cc1ccccc1Cl | 7.01 µM |
| CC(C)COC(=O)NCCOC(=O)Nc1cccc(Cl)c1 | 27.7 µM (inactive) |
| Cc1cc(C(=O)CSc2nnnn2C)c(C)n1-c1cccc(F)c1 | > 95.1 µM (inactive) |
| CC(=O)Oc1ccc(N2C(=O)C3C(C2=O)C2(C)C=CC3(C)O2)cc1 (stereo unspecified) | 3.23 µM |
| O=S(=O)(NCc1ccncc1)c1ccc(Br)s1 | > 95.1 µM (inactive) |
| COc1ccc(Cc2nc(-c3ccc(-n4cccc4)cc3)no2)cc1OC | > 95.1 µM (inactive) |
| Cc1cc(/C=N/n2cnnc2)c(C)n1-c1ccc(OCc2ccccc2F)cc1 | 7.37 µM |
| O=S1(=O)C=C(Sc2nc3cc(Cl)ccc3o2)c2ccccc21 | 6.35 µM |
| CCN(C(=O)c1ccc(C(C)(C)C)cc1)c1nnc(Cn2nnc3ccccc32)s1 | 8.78 µM |
| CCCCOc1ncnc2c1[nH]c1ccc(F)cc12 | > 95.1 µM (inactive) |
| CC1CC(C)(C)Nc2ccc(OC(=O)c3ccco3)cc21 (stereo unspecified) | 7.66 µM |
| COc1cc(-c2noc(C3CCCN(S(=O)(=O)c4cccc(Cl)c4)C3)n2)cc(OC)c1OC (stereo unspecified) | > 95.1 µM (inactive) |

| SMILES | EC50 |
| --- | --- |
| O=C(c1ccc(Cl)s1)N1CCN(c2nc3ccccc3s2)CC1 | > 95.1 µM (inactive) |
| O=C(Nc1ccc(Oc2ccccc2)cc1)c1cnc2n(c1=O)CCS2 | > 95.1 µM (inactive) |
| CC1Cc2cc(-c3csc(NC(=O)Cc4cccs4)n3)ccc2N1S(C)(=O)=O (stereo unspecified) | 23.8 µM (inactive) |
| Cc1cc(C)n(-c2nc3ccccc3c(=O)n2OCCOc2ccccc2)n1 | > 95.1 µM (inactive) |
| O=C(c1ccccc1)C(CCC(CN1CCOCC1)C(=O)c1ccccc1)CN1CCOCC1 (stereo unspecified) | 2.68 µM |
| C/C(N)=C(/C#N)C(=O)CSc1nnc(SCc2ccc(Cl)cc2)s1 | > 95.1 µM (inactive) |
| COc1ccc(S(=O)(=O)N2CCN(c3ccc(C)cc3C)CC2)cc1OC | 28.4 µM (inactive) |
| Cc1nn(Cc2ccccc2)c(C)c1C(=O)OCC(=O)c1cc(C)n(C2CC2)c1C | > 30 µM (inactive) |
| COc1ccc2c(c1)-c1nc(NC(=O)c3cccs3)sc1CC2 | 16.2 µM (inactive) |
| CC1=CC(C)(C)Nc2ccc(OC(=O)c3ccco3)cc21 | > 3 µM (inactive) |
| Cc1cc(N2CCN(C(c3ccccc3)c3ccccc3)CC2)n2ncnc2n1 | > 30 µM (inactive) |
| CC(C)OC(=O)CSc1nc(N)c(C#N)c(-c2cccs2)c1C#N | > 95.1 µM (inactive) |
| Cc1ccc(S(=O)(=O)Nc2ccc3ncccc3c2)cc1 | > 30 µM (inactive) |
| CCOC(=O)N1CCC(NC(=O)C2CCCN(Cc3nc(-c4cccc(Cl)c4)oc3C)C2)CC1 (stereo unspecified) | > 95.1 µM (inactive) |
| COc1ccc(NC(=O)c2cnn3c(C(F)(F)F)cc(-c4ccco4)nc23)cc1OC | > 95.1 µM (inactive) |
| Cc1oc(-c2ccccc2)nc1Cn1cccc1C1=NC(c2ccccc2)CO1 (stereo unspecified) | > 95.1 µM (inactive) |
| Cc1cc(-c2nnc(-c3ccccc3)c(-c3ccccc3)n2)c(C)o1 | 33.7 µM (inactive) |
| Cc1ccc(-c2nc(COC(=O)c3c(C)noc3C)cs2)cc1 | > 95.1 µM (inactive) |
| CC(=O)c1c(C)[nH]c(C(=O)OCCCCN2C(=O)c3ccccc3C2=O)c1C | > 10 µM (inactive) |
| COc1ccc(/C=N/O)cc1COc1ccc(NC(C)=O)cc1 | > 95.1 µM (inactive) |
| CCn1c(NC(=O)c2cccc(Cn3cc(Cl)cn3)c2)nc2ccccc21 | > 95.1 µM (inactive) |
| C=CCn1c(C)cc(C(=O)CSc2nc3ccccc3o2)c1C | > 30 µM (inactive) |
| CC(=O)Nc1ccc(S(=O)(=O)N2CCN(c3cccc(C)c3C)CC2)cc1 | 36.5 µM (inactive) |
| Cc1cccc(OCCCCc2c(C)n[nH]c2C)c1C | 29.3 µM (inactive) |
| O=C(Oc1cccc(C(=O)N2CCOCC2)c1)c1ccc(Br)cc1 | > 95.1 µM (inactive) |
| Cc1nc2ncnn2c(N2CCN(c3cccc(C(F)(F)F)c3)CC2)c1C | > 30 µM (inactive) |

| SMILES | EC50 |
| --- | --- |
| O=C(Nc1nc(-c2ccc(Cl)s2)cs1)c1ccncc1 | > 95.1 µM (inactive) |
| CN(C)c1oc(-c2ccc(OCc3ccccc3)cc2)nc1C#N | > 95.1 µM (inactive) |
| CC1=CC(C)(C)Nc2ccc(OC(=O)c3cccnc3)cc21 | 4.43 µM |
| Nc1ccc(N2CCOCC2)c(Cl)c1 | > 95.1 µM (inactive) |
| FC(F)(F)c1ccc(N2CCN(c3cc(-c4ccccc4)nc4ncnn34)CC2)nc1 | > 95.1 µM (inactive) |
| COc1cc(C(=O)N2CCN(S(=O)(=O)c3ccc(C)cc3)CC2)ccc1OCc1c(C)noc1C | > 95.1 µM (inactive) |
| COc1ccccc1-c1cc(C(=O)Nc2cc(C)nn2-c2ccccc2)no1 | > 95.1 µM (inactive) |
| CCn1nc(-c2ccccc2)nc2c(=O)n(C)c(=O)nc1-2 | 2.09 µM |
| COC(=O)c1cc(CSc2nnc(-c3ccccc3)c(-c3ccccc3)n2)oc1C | > 95.1 µM (inactive) |
| COc1ccc(-c2nc3cc(NC(=O)Cc4ccc(OC)c(OC)c4)ccc3o2)cc1 | > 10 µM (inactive) |
| CCN=c1scc(-c2ccc3c(c2)NC(=O)CO3)n1N=C1CCCC1 | > 30 µM (inactive) |
| CC(=O)c1sc(NC(=O)C2(F)C(F)(F)C(F)(F)C(F)(F)C(F)(F)C2(F)F)nc1C | 31.2 µM (inactive) |
| Cc1nn(Cc2ccc(Cl)c(Cl)c2)c(C)c1NC(=O)c1cc(C2CC2)on1 | 41.2 µM (inactive) |
| O=C1C2C3C=CC(CO)(O3)C2C(=O)N1c1ccccc1-c1ccccc1 (stereo unspecified) | 2.26 µM |
| COCCn1c(C)cc(C(=O)CSc2nc3ccccc3o2)c1C | > 95.1 µM (inactive) |
| CCn1c(-c2cccc(Cl)c2)n[nH]c1=S | > 95.1 µM (inactive) |
| O=C(CCc1nc(-c2ccccc2F)no1)Nc1ccc(Oc2ccccc2)cc1 | 6.94 µM |
| COC(=O)c1cc(NCc2ccccc2F)ccc1N1CCOCC1 | > 95.1 µM (inactive) |
| COc1ccc(-c2nc(-c3ccncc3)no2)cc1OC | > 95.1 µM (inactive) |
| CCN(CC)c1ccc2cc(NC(=O)CCC(=O)O)c(=O)oc2c1 | 6.1 µM |
| O=C(Nc1cccc(C(F)(F)F)c1)N1CCC(c2nc(-c3ccc(F)cc3)no2)CC1 | 14.4 µM (inactive) |
| Cc1cc(/C=N/n2cnnc2)c(C)n1-c1ccc(OCc2ccc(F)cc2)cc1 | 6.71 µM |
| COC(=O)CS(=O)(=O)c1nnc([C@H](Cc2ccccc2)NC(=O)OC(C)(C)C)o1 | 3.68 µM |
